Laboratory results from ChEMBL document CHEMBL2346598, “Synthesis and pharmacological characterization of 2-(acylamino)thiophene derivatives as metabolically stable, orally effective, positive allosteric modulators of the GABAB receptor” (J Med Chem, 2013).
Active and inactive are the calls of the source. No cut-off for these calls is given here.

Experiments:
Rattus norvegicus [1] = species on record: Rattus norvegicus; experiment: Positive allosteric modulation of GABAB receptor in rat cortical membranes assessed as stimulation of [35S]GTPgammaS binding up to 100 uM after 30 mins by liquid scintillation counting analysis; format: functional, cell membranes; conditions: Membrane
[2] = Drug metabolism in mouse liver microsomes at 5 uM after 60 mins by LC/MS/MS analysis; format: ADME, Microsome; conditions: read-out: Drug metabolism
Mus musculus [3] = experiment: Hypnotic effect in DBA mouse assessed as potentiation of pentobarbital-induced loss of righting reflex at 100 mg/kg, ip incubated for 30 mins prior to pentobarbital-challenge; format: functional, organism-based; parameters: dose 100 mg/kg
Mus musculus [4] = experiment: Hypnotic effect in DBA mouse assessed as potentiation of baclofen-induced loss of righting reflex at 300 mg/kg, ip incubated for 30 mins prior to baclofen-challenge; format: functional, organism-based; parameters: dose 300 mg/kg
[5] = Elimination rate constant in mouse liver microsomes at 5 uM after 60 mins by LC/MS/MS analysis; format: ADME, Microsome
Mus musculus [6] = experiment: Hypnotic effect in DBA mouse assessed as increase in baclofen-induced duration of loss of righting reflex at 100 to 300 mg/kg, ip incubated for 30 mins prior to baclofen-challenge relative to vehicle-treated control; format: functional, organism-based
NIH3T3 = experiment: Cytotoxicity against mouse NIH/3T3 cells after 24 hrs by neutral red staining-based UV/visible spectrophotometric analysis; format: cell-based; conditions: NIH3T3, 24 h
Mus musculus [7] = experiment: Hypnotic effect in DBA mouse assessed as increase in pentobarbital-induced duration of loss of righting reflex at 30 mg/kg, ip incubated for 30 mins prior to pentobarbital-challenge; format: functional; conditions: route intraperitoneal
Rattus norvegicus [8] = species on record: Rattus norvegicus; experiment: Positive allosteric modulation of GABAB receptor in rat cortical membranes assessed as potentiation of GABA-induced [35S]GTPgammaS binding at 2.5 uM after 30 mins by liquid scintillation counting analysis relative to GABA; format: functional, cell membranes; conditions: Membrane
Mus musculus [9] = experiment: Hypnotic effect in DBA mouse assessed as potentiation of baclofen-induced loss of righting reflex at 300 mg/kg, ig incubated for 30 mins prior to baclofen-challenge; format: functional, organism-based; parameters: dose 300 mg/kg
Rattus norvegicus [10] = species on record: Rattus norvegicus; experiment: Positive allosteric modulation of GABAB receptor in rat cortical membranes assessed as potentiation of GABA-induced [35S]GTPgammaS binding at 25 uM after 30 mins by liquid scintillation counting analysis relative to GABA; format: functional, cell membranes; conditions: Membrane
Mus musculus [11] = experiment: Hypnotic effect in DBA mouse assessed as reduction in baclofen-induced onset of loss of righting reflex at 300 mg/kg, ig incubated for 30 mins prior to baclofen-challenge relative to vehicle-treated control; format: functional, organism-based; parameters: dose 300 mg/kg
Mus musculus [12] = experiment: Hypnotic effect in ip dosed DBA mouse assessed as reduction in baclofen-induced onset of loss of righting reflex incubated 30 mins prior to baclofen-challenge; format: functional, organism-based
Mus musculus [13] = experiment: Hypnotic effect in DBA mouse assessed as reduction in pentobarbital-induced onset of loss of righting reflex at 30 mg/kg, ip incubated for 30 mins prior to pentobarbital-challenge (reference value: 60.0 +/- 0.0 min); format: functional; conditions: route intraperitoneal
Mus musculus [14] = experiment: Hypnotic effect in DBA mouse assessed as increase in pentobarbital-induced duration of loss of righting reflex at 300 mg/kg, ip incubated for 30 mins prior to pentobarbital-challenge; format: functional; conditions: route intraperitoneal
Mus musculus [15] = experiment: Hypnotic effect in DBA mouse assessed as potentiation of baclofen-induced loss of righting reflex at 3 mg/kg, ip incubated for 30 mins prior to baclofen-challenge; format: functional, organism-based; parameters: dose 3 mg/kg
Mus musculus [16] = experiment: Hypnotic effect in DBA mouse assessed as increase in baclofen-induced duration of loss of righting reflex at 300 mg/kg, ig incubated for 30 mins prior to baclofen-challenge relative to vehicle-treated control; format: functional, organism-based; parameters: dose 300 mg/kg
Mus musculus [17] = experiment: Hypnotic effect in DBA mouse assessed as reduction in pentobarbital-induced onset of loss of righting reflex at 300 mg/kg, ip incubated for 30 mins prior to pentobarbital-challenge (reference value: 60.0 +/- 0.0 min); format: functional; conditions: route intraperitoneal
Plasma = experiment: Metabolic stability in mouse plasma at 5 uM after 30 mins by HPLC-MS analysis; format: ADME, cell-free; conditions: 0.5 h
Mus musculus [18] = experiment: Hypnotic effect in ip dosed DBA mouse assessed as increase in baclofen-induced duration of loss of righting reflex incubated for 30 mins prior to baclofen-challenge; format: functional, organism-based
[19] = Intrinsic clearance in mouse liver microsomes assessed per mg protein at 5 uM after 60 mins by LC/MS/MS analysis; format: ADME, Microsome; conditions: read-out: CLH
Mus musculus [20] = experiment: Hypnotic effect in DBA mouse assessed as reduction in baclofen-induced onset of loss of righting reflex at 100 to 300 mg/kg, ip incubated for 30 mins prior to baclofen-challenge relative to vehicle-treated control; format: functional, organism-based
Mus musculus [21] = experiment: Hypnotic effect in DBA mouse assessed as potentiation of baclofen-induced loss of righting reflex at 30 mg/kg, ip incubated for 30 mins prior to baclofen-challenge; format: functional, organism-based; parameters: dose 30 mg/kg
Rattus norvegicus [22] = species on record: Rattus norvegicus; experiment: Positive allosteric modulation of GABAB receptor in rat cortical membranes assessed as potentiation of GABA-induced [35S]GTPgammaS binding after 30 mins by liquid scintillation counting analysis; format: functional, cell membranes; conditions: Membrane
Mus musculus [23] = experiment: Hypnotic effect in DBA mouse assessed as potentiation of baclofen-induced loss of righting reflex at 10 mg/kg, ip incubated for 30 mins prior to baclofen-challenge; format: functional, organism-based; parameters: dose 10 mg/kg
Mus musculus [24] = experiment: Hypnotic effect in DBA mouse assessed as potentiation of pentobarbital-induced loss of righting reflex at 300 mg/kg, ip incubated for 30 mins prior to pentobarbital-challenge; format: functional, organism-based; parameters: dose 300 mg/kg
Mus musculus [25] = experiment: Hypnotic effect in DBA mouse assessed as potentiation of pentobarbital-induced loss of righting reflex at 30 mg/kg, ip incubated for 30 mins prior to pentobarbital-challenge; format: functional, organism-based; parameters: dose 30 mg/kg
Mus musculus [26] = experiment: Hypnotic effect in DBA mouse assessed as increase in pentobarbital-induced duration of loss of righting reflex at 100 mg/kg, ip incubated for 30 mins prior to pentobarbital-challenge; format: functional; conditions: route intraperitoneal
Mus musculus [27] = experiment: Hypnotic effect in DBA mouse assessed as potentiation of baclofen-induced loss of righting reflex at 1 mg/kg, ip incubated for 30 mins prior to baclofen-challenge; format: functional, organism-based; parameters: dose 1 mg/kg
Mus musculus [28] = experiment: Hypnotic effect in DBA mouse assessed as potentiation of baclofen-induced loss of righting reflex at 100 mg/kg, ip incubated for 30 mins prior to baclofen-challenge; format: functional, organism-based; parameters: dose 100 mg/kg
Mus musculus [29] = experiment: Hypnotic effect in DBA mouse assessed as reduction in pentobarbital-induced onset of loss of righting reflex at 100 mg/kg, ip incubated for 30 mins prior to pentobarbital-challenge (reference value: 60.0 +/- 0.0 min); format: functional; conditions: route intraperitoneal

With CCc1c(C)sc(NC(=O)c2ccc(C)cc2)c1C(=O)OC the Activity (Rattus norvegicus [1]) was “inactive”, the metabolised at 1 h, 5 µM [2] was 28% and the Activity (Mus musculus [3]) was “inactive”. The Activity (Mus musculus [4]) was “Active”, the k el at 1 h, 5 µM [5] was 0.000124 s⁻¹ and the Activity (Mus musculus [6]) was “Active”. For the same molecule, the IC50 (NIH3T3) was 95 µM, the Time (Mus musculus [7]) was 4.7 min and the Activity (Rattus norvegicus [8]) was 3.7%. For the same molecule, the Activity (Mus musculus [9]) was “Active”, the Activity (Rattus norvegicus [10]) was 18.2% and the Activity (Mus musculus [11]) was “Active”. The Activity (Mus musculus [12]) was “Dose-dependent effect”, the Time (Mus musculus [13]) was 53.3 min and the Time (Mus musculus [14]) was 14 min. For the same molecule, the Activity (Mus musculus [15]) was “Active”, the Activity (Mus musculus [16]) was “Active” and the Time (Mus musculus [17]) was 26.7 min. The Stability (Plasma) was “Unstable”, the Activity (Mus musculus [18]) was “Dose-dependent effect” and the microsomal CLint at 5 µM [19] was 7.73 µL/min/mg. The Activity (Mus musculus [20]) was “Active”, the Activity (Mus musculus [21]) was “Active” and the Activity (Rattus norvegicus [22]) was “inactive”. For the same molecule, the Activity (Mus musculus [23]) was “Active”, the Activity (Mus musculus [24]) was “Active” and the Activity (Mus musculus [25]) was “inactive”. For the same molecule, the Time (Mus musculus [26]) was 11.2 min, the Activity (Mus musculus [27]) was “inactive” and the Activity (Mus musculus [28]) was “Active”. The Time (Mus musculus [29]) was 43.8 min.
